Here are results for 2 compounds from patent publication US20120196918A1, “PREVENTING ISLET INFLAMMATION AND DYSFUNCTION AND MAINTAINING PROPER GLUCOSE LEVELS BY CONTROLLING eIF5A AND ITS HYPUSINATION” (priority 2009, published 2012).

One data set concerns C57BL/6J mouse islets. The experiment in a line: GSIS and GSCa of islets isolated from siRNA-injected mice. It counts as cell-based. The procedure:
To clarify this, islets were isolated from siRNA-injected mice and their function assessed in vitro. […] In order to further characterize this improvement in islet glucose responsiveness, glucose-stimulated Ca2+ mobilization (GSCa) studies were also performed. GSCa is a measure of islet glucose sensitivity that captures the dynamics of the islet glucose response, which is similar to GSIS (31). The GSCa, as measured by the change in fura-2 AM fluorescence ratio after glucose stimulation, was increased in si-eIF5A-treated islets compared to controls, reflecting the functional improvement seen in GSIS (FIG. 3D). This improved GSCa relative to controls persisted 48 and 72 hours post-isolation (data not shown).
A short cytokine exposure (4 h) was utilized to assess early impairment in islet function independent of islet cell death. […] As shown in the inset to FIG. 3E, eIF5A levels remained persistently lower in the si-eIF5A group even after cytokine exposure.
Cytokine and inhibitor incubation studies: For cytokine incubation assays, a 1000× cocktail of cytokines containing 5 μg/ml IL1β, 10 μg/ml TNFα, and 100 μg/ml IFNγ (all prepared in 0.1% BSA in Tris-buffered saline) was applied at 1× final concentration to groups of 50 islets or 1×10^6 INS-1 (832/13) cells for a total of 4 h at 37° C. For GC7 incubation studies, GC7 was prepared at a stock concentration of 125 mM in 10 mM acetic acid and applied to cultures of 50 islets or 1×10^6 INS-1 cells to obtain the final concentrations indicted in the figures. Where needed, GC7 was protected from amine oxidases in serum by addition of 1 mM aminoguanidine (Sigma). Cells were incubated with GC7 overnight (˜16 h) at 37° C. prior to analysis. Cells were exposed to Leptomycin B (Cayman Chemicals) for 3 hours; leptomycin B was prepared at a 1000× stock concentration of 20 μg/ml in ethanol.
GSCa imaging assays: Intracellular Ca^2+ ((Ca2+)i) was measured using the ratiometric Ca^2+ indicator fura-2 AM using a modification of previously published methods (79). The glucose-stimulated (Ca2+)i response (GSCa) was defined as the difference between ratio measurements (340/380 nm fluorescence) in 11 mM vs. 3 mM glucose. Data were analyzed with IP Lab's software version 4.0 (Scanalytics).
GSIS and IPGTT studies: For GSIS studies using isolated islets, approximately 50 islets or 1×10^6 INS-1 cells per condition were washed and incubated in Krebs-Ringer HEPES-buffered (KRB) solution for one hour at 37° C., and then placed in KRB solution containing 3 mM or 11 mM glucose for one hour. […] Blood glucose was measured from samples taken from the tail vein before intraperitoneal injection of 1 g glucose per kg mouse weight, and at 10, 20, 30, 60, 90, 120, and 180 minutes after glucose administration using an A1phaTrak® glucometer (Abbott).

The subject of data set [1] is iNOS. The experiment in a line: Nitrite release into INS-1 cell medium (Griess reagent). It is filed as cell-based, rat. The settings on record: increasing GC7 concentrations, cytokines 4 h; greatest inhibition at 125 μM. From the text: (§1) eIF5A1 and eIF5A2 are the only proteins known to contain the unique amino acid hypusine at position 50. Hypusine is formed as a posttranslational modification of residue Lys50 in a reaction requiring spermidine and catalyzed by the sequential actions of the enzymes deoxyhypusine synthase (DHS) and deoxyhypusine hydroxylase (DOHH) (Chen, K Y, and Liu, A Y. Biochemistry and function of hypusine formation on eukaryotic initiation factor 5A. Biol Signals. 1997; 6(3):105-109). […] To further investigate the mechanism of eIF5A-regulated translation of Nos2, studies were performed following overnight incubation of cells with mimosine (an inhibitor of DOHH) and GC7 (an inhibitor of DHS). […]
(§2) Immunoblot and nitrite and iNOS assays: Whole cell extracts were resolved by electrophoresis on a 4-20% SDS-polyacrylamide gel, followed by immunoblot using anti-eIF5A1, anti-eIF5A2, anti-iNOS, anti-GFP, or anti-actin primary antibodies and fluorophore-labeled secondary antibodies. Immunoblots were visualized using the Li-Cor® Odyssey® system (Li-Cor Biosciences) and quantitated by scanning fluorometry using Odyssey Imaging v. […] Nitrite was quantitated by measuring nitric oxide-derived nitrite from INS-1 cell culture medium using the Griess reagent (Promega) according to the manufacturer's recommendations. iNOS activity was measured using a commercially available kit (Cayman).
(In general: The Griess reaction detects nitrite, a stable product of nitric oxide.)

Data set [2] has as its system iNOS. The data set can be described thus: Cytokine-induced iNOS protein in human islets (immunoblot). It counts as cell-based. The settings on record: incubation with GC7, cytokines.
From the text: as §1, §2
In general terms: A western blot detects proteins with antibodies after separation by electrophoresis.

For a further data set, the system named is Nos2 mRNA. The data set can be described thus: Nuclear export of Nos2 mRNA, subcellular fractionation of cytokine-treated INS-1 cells. It counts as cell-based, rat. Particulars: cytokine-treated; GC7 100 μM overnight or leptomycin B 20 ng/ml 3 h. The method, then: Subcellular fractionation studies: Nuclear and cytoplasmic fractions of 1×10^6 cytokine-treated INS-1 cells exposed to vehicle, leptomycin B (20 ng/ml), or GC7 (100 μM) were prepared using the method of Dignam, et al. (76). Total RNA was isolated from nuclear and cytoplasmic fractions using the RNeasy® RNA isolation kit (Qiagen).
Quantitative RT-PCR: Five micrograms of total RNA from islets or INS-1 cells were reverse-transcribed as detailed previously (77). cDNA was subjected to quantitative PCR using SYBR Green-based technology and published primers for mouse Ins1/2 pre-mRNA (78) and QuantiTech® primers (Qiagen) for all other mouse genes. The Assay on Demand® kit (Applied Biosystems) was used to amplify rat genes in INS-1 cells and human genes in human islets. Thermal cycling was performed according to manufacturer's instructions, and the identity of each PCR product was verified by automated sequencing. All samples were corrected for total input RNA as quantitated by an Experion® (Bio-Rad) bioanalyzer. All data represent the average of triplicate determinations from at least 3 independent experiments.

Setting [3] is: IL-1β, TNFα, IFNγ for 4 h, compared to controls.

As for “5′-AACGGAAUGACUUCCAGCUGA-3′ (siSTABLE modification, further chemistry not given here) [si-eIF5A]”, in the data set with C57BL/6J mouse islets (setting [3]), the “GSCa of isolated islets after cytokines” value is reported as “significant preservation” and the “GSIS of isolated islets after cytokines” value is listed as “significant preservation”. Moreover, the “glucose-stimulated insulin secretion (GSIS) of isolated islets” value in the data set with C57BL/6J mouse islets (islets from siRNA-injected mice, no cytokines) is “significant improvement in islet response to glucose stimulation”. Besides, the “glucose-stimulated Ca2+ mobilization (GSCa) of isolated islets” value with C57BL/6J mouse islets (islets from siRNA-injected mice, no cytokines, compared to controls) was “increased”.
On to `NCCCCCCCN=C(N)N` [GC7], for which the “nitrite release into the medium” value in the data set on iNOS [1] is recorded as “dose-dependent attenuation”. The “iNOS protein levels in human islets” value in the data set on iNOS [2] is “dose-dependent inhibition”. The “distribution of mRNAs between nuclear and cytoplasmic fractions” value with Nos2 mRNA is “relative nuclear retention of Nos2 mRNA”.
